Measurements published in patent US9045793B2, “Method of regulating the expression level of survival of motor neuron 1” (KAOHSIUNG MEDICAL UNIVERSITY, priority 2011, dated 2015).
Peptide text beside a SMILES is read from it. * marks the point of attachment. Cbz = O=C(OCc1ccccc1)*

Columns and labels:
[1] = test system: SMN protein in NSC34 cells; assay: Cellular SMN protein level after LDN-57444 treatment (Western blot); assay type: cell-based; conditions: for SMN protein expression level increase compared to the vehicle group: 5 μM; for SMN protein increase: 10 μM
Protocol: (§1) Western blot analysis and immunohistochemical staining were performed as described previously. The primary antibodies used in this study were β-actin (1:2,000, Santa Cruz, 1-19), SMN (1:1,000, Santa Cruz, SC-32313), Gemin 2, Gemin 3 and Gemin 5 polyclonal antibody (1:200, Santa Cruz), UCHL1 monoclonal antibodies (1:2,000, Calbiochem.), HA-tag (1:2,000, Sigma), FITC-conjugated anti-mouse, alkaline phosphatase-conjugated anti-rabbit antibodies (1:500, Jackson ImmunoResearch Lab.) and anti-EGFP rabbit polyclonal antibody (1:5,000, produced in-house).
The cellular function of UCHL1 on SMN protein was further characterized with an over-expression assay. The UCHL1 was tagged with HA tag and over expressed in HEK293, p19 and NSC34 cells to evaluate the cellular function. […] The regulatory effect of UCHL1 was also confirmed with UCHL1 specific inhibitor (FIGS. 5A and 5B). SMN protein could effectively elevate expression level at 5 μM after LDN-57444 treatment for 8 (38%), 16 (42%), 24 (43%) and 48 (46%) hours compared to the vehicle group (FIGS. 5A and 5B).

[2] = test system: SMN protein in SMA patients' skin fibroblast cells; assay: Cellular SMN protein level in SMA patients' skin fibroblast cells; assay type: cell-based, human
Protocol: as §1
In order to investigate the possibility of therapeutic application, the UCHL1 specific inhibitor was also applied to the SMA patients' skin fibroblast cells. Type II and type III SMA skin fibroblast cells were treated with MG132, a proteasome inhibitor, and LDN-57444.

[3] = test system: nucleus gems in NSC34 cells; assay: Nucleus gems count by immunofluorescence staining (anti-Gemin 2); assay type: cell-based; conditions: for increase of gems number per one hundred cells comparing to vehicle: NSC34 cells, 10 μM; for Total number of nucleus gems per 100 cells: NSC-34 cells
Protocol: The cellular expression localization of UCHL1 and SMN was determined by immunofluorescence as previously described (Hsu, S. H. et al. (2004) Exp Cell Res, 294, 185-198). HEK 293 and NSC34 cells were cultured on coverslides pre-coated with poly-L-lysine for 16 hours. After washing with cold PBS, cells were fixed with 2% paraformaldehyde in PBS for 30 minutes on ice, and then the slides were washed with PBS for 30 minutes. Cells were permeabilized with buffer containing 0.2% Triton X-100 and 1% NGS in PBS for 20 minutes on ice, and then the slides were washed with PBS to remove excess detergent. Cells were then incubated in anti-EGFP (or anti-HA) and anti-SMN polyclonal antibody (1:200) for 1 hour at room temperature. After washing cells with PBS for 30 minutes, FITC-conjugated […] anti-rabbit and -mouse polyclonal antibody (1:300) was added and the cells were incubated for another 1 hour at room temperature in a humid chamber. Cells were finally counterstained with DAPI to localize the nucleus and observed by confocal microscopy.
In additional to the use of specific UCHL1 inhibitor, the specific shRNAi constructs for UCHL1 were also used to monitor the regulatory effects of UCHL1 on SMN protein. […] The knockdown efficiency of these shRNAi constructs to UCHL1 was 25, 70 and 47% of vector control and the SMN protein was increased 32, 46 and 47% (FIG. 5D). […] The cellular function of elevated SMN was also examined with nucleus gems by immuno-fluorescence staining (FIG. 5E). The nucleus gems stained with anti-Gemin 2 antibody were counted for one hundred NSC34 treated with vehicle or LDN-57444 for 24 hours and 48 hours.

[4] = test system: ubiquitinated SMN protein in NSC34 cells; assay: Cellular ubiquitination of SMN (anti-SMN immunoprecipitation, anti-ubiquitin blot); assay type: cell-based; conditions: different concentrations of inhibitor
Protocol: Immunoprecipitation assays were performed as previously described with some modifications. Cells with endogenous or ectopically expressed UCHL1 were lysed with RIPA buffer containing 0.2% SDS. After sonication, the lysate was diluted with modified RIPA containing 1% NP-40 for immunoprecipitation. Anti-UCHL1 or anti-SMN antibodies were used to immunoprecipitate the protein. The re-suspended IP complexes were then analyzed by Western blot.
Next, to determine the functional significance of this interaction, purified UCHL1 tagged with 6×His was co-incubated with SMN immunoprecipitate and in vitro ubiquitination assay was performed. […] The SMN protein complex was immunoprecipitated from total cell extract treated with different concentrations of UCHL1 inhibitor and the level of ubiquitinated SMN was determined by the use of anti-ubiquitin antibody.

## CC(=O)O/N=C1\C(=O)N(Cc2cc(Cl)ccc2Cl)c2ccc(Cl)cc21 [LDN-57444]
[1]; 8 hours
  SMN protein expression level increase compared to the vehicle group: 38%
  SMN protein increase: 40%
[1]; 16 hours
  SMN protein expression level increase compared to the vehicle group: 42%
  SMN protein increase: 56%
[1]; 24 hours
  SMN protein expression level increase compared to the vehicle group: 43%
  SMN protein increase: 83%
[1]; 48 hours
  SMN protein expression level increase compared to the vehicle group: 46%
  SMN protein increase: 53%
[1]; 15 μM
  SMN protein level, time course at high dosage: time delay increase in SMN protein level until 16 hours
[2]; type I SMA skin fibroblast cells
  increase of cellular SMN protein level: 52-62%
[2]; type II SMA skin fibroblast cells
  increase of cellular SMN protein level: 31-38%
[2]; type III SMA skin fibroblast cells
  increase of cellular SMN protein level: 72-87%
[3]; 24 hours
  increase of gems number per one hundred cells comparing to vehicle: 2.25 fold
[3]; 48 hours
  increase of gems number per one hundred cells comparing to vehicle: 2.54 fold
[3]; 10 μmol/l, 24 h
  Total number of nucleus gems per 100 cells: 142±7.55 per 100 cells
[3]; 10 μmol/l, 48 h, medium and LDN-57444 replaced each day
  Total number of nucleus gems per 100 cells: 164 ± 8.50 per 100 cells
[3]; 20 μmol/l, 24 h
  Total number of nucleus gems per 100 cells: 189 ± 10.72 per 100 cells
[3]; 20 μmol/l, 48 h, medium and LDN-57444 replaced each day
  Total number of nucleus gems per 100 cells: 193 ± 10.21 per 100 cells

## CC(C)C[C@@H](C=O)NC(=O)[C@H](CC(C)C)NC(=O)[C@H](CC(C)C)NC(=O)OCc1ccccc1 [MG132] (Cbz-Leu-Leu-Leu-aldehyde)
[4]
  level of ubiquitinated SMN protein: same enhancement
[2]; SMA skin fibroblast cells, positive control
  cellular SMN protein level (in words): increased cellular SMN protein level
